Measurements from patent US12110496B2, “Method of determining the zygosity of event MON 88302” (priority 2010, dated 2024).

Tests used:
[1] = system: canola comprising event MON 88302 (Ebony germplasm); experiment: Field trial of glyphosate tolerance, MON 88302 event (crop injury, maturity, seed moisture, yield); format: in vivo, Brassica napus; conditions: for 7-10 DAT % CHLR Avg / 14-21 DAT % GR Avg: MON88302
Source text: (§1) The current registered glyphosate rate for the Genuity™ Roundup Ready® Canola system (event RT73) is a single application of 675 g ae/ha or two 450 g ae/ha applications up to the six leaf stage of the canola crop. RT73 was compared with the MON 88302 event at multiple single application rates of glyphosate. Applications were made from post emergence to the first flower of the canola crop. The Genuity™ Roundup Ready® Canola system (RT73 event) was represented by the commercial open pollinated variety 34-65, and event MON88302 was transformed into the Ebony germplasm.
(§2) Eight trials were established with six taken to harvest (one site was lost to drought and one site was lost to hail, and data from one harvested site was not used due to the coefficient of variation (CV) exceeding the predetermined cut-off value). Standard canola growing practices were utilized throughout the season to optimize plant growth. Pre-emergent and post-emergent conventional herbicides and seed treatment containing fungicide and insecticide were used to minimize pest pressure. Trials were set up as a split block design with Genuity™ Roundup Ready® Canola (RT73 event) or MON 88302 systems blocked and herbicide rates randomized within the block. Plots were two by six meters and replicated three times. Plots were sprayed with handheld boom sprayers at 100-110 l/ha application rate at the appropriate crop stage. The Canadian formulation of Roundup WeatherMAX® (540 g/L) was used as the glyphosate product. The four to six leaf stage was defined as four to six true leaves on the main stem, and first flower was when 50% of the plants had at least one flower. Percent chlorosis (% CHLR) was recorded seven to ten days after herbicide application (DAT or days after treatment). Percent chlorosis is a visual estimate of the amount of yellowing on the leaves of plants as a result of herbicide treatment compared to the untreated check on a 1 to 100 scale. Percent growth reduction (% GR) was recorded 14-21 days after herbicide application (DAT). Percent growth reduction is a visual evaluation used to describe plant growth reduction consisting of, but not limited to, reduced height and/or quantity of foliage for the treated area. The evaluation pertains only to the above ground portion of the plant. Percent growth reduction is compared to the non-treated check and is rated on a 1 to 100 scale. Maturity was recorded as days after planting to when 30% of the seeds on the main raceme are brown/black in color. Percent seed moisture was recorded electronically during harvesting. All plots were swathed and then allowed to dry until seed moisture was low enough to facilitate harvesting. Weight and seed moisture was recorded electronically during harvesting and converted to bushels/acre at 10% seed moisture. Each location was analyzed individually and averages across locations were analyzed using statistical software. Data were screened for outliers using the standard two-pass procedure based on deleted studentized residuals using a False Discovery Rate (FDR) adjustment for an experiment-wise Type I error rate of 5% at each location. Outliers were removed prior to analysis. The standard analysis of variance for a split-plot design was performed by mixed model with restricted maximum likelihood estimation-variety and herbicide treatments were treated as fixed effects, replications and locations were random effects. Least-squares means were calculated for each variety and each treatment, and t-tests with comparison-wise error rates of 5% were used to determine the significance between variety and control at each herbicide treatment level on canola growth characteristics. Crop injury, maturity, and yield were measured to assess benefits.

[2] = system: canola comprising event RT73 (Genuity Roundup Ready Canola, variety 34-65); experiment: Field trial of glyphosate tolerance, RT73 event (crop injury, maturity, seed moisture, yield); format: in vivo, Brassica napus
Source text: as §1, §2

[3] = system: Brassica napus events from construct 2; experiment: First year efficacy field trials, construct 2 events; format: in vivo
Protocol: The 25 events were also evaluated in first year field testing for efficacy located at the same testing site as the agronomy field trials. Efficacy field trials were initiated to evaluate the vegetative and reproductive tolerance of the events to sequential applications of glyphosate at various application timings and rates. The 16 R2 events from construct 1 were evaluated at 5 locations. The 3 R2 events from construct 2, the 3 R2 events from construct 4, and the 3 R2 events from construct 5 were evaluated at 4 locations. Each study contained the positive isoline of each event and two commercial varieties. […]
Events were evaluated for vegetative and reproductive tolerance to either a single application of 1.6 lb AE/A or two sequential applications of 0.8 lb AE/A when applied from crop emergence up to first flower. […]
(§3) Data Collection was performed as above. Glyphosate injury was assessed as follows. […] Vegetative injury was rated after the first glyphosate application while reproductive percent chlorosis/necrosis was evaluated after the second application using a scale ranging from 0% (no injury) to 100% (plant death). Growth reduction was evaluated at 14 to 21 days after each application using a scale ranging from 0 to 100%. Vegetative growth reduction was evaluated after the first application while reproductive growth reduction was determined after the sequential application. […]

[4] = system: Brassica napus events from construct 1; experiment: First year efficacy field trials, construct 1 events; format: in vivo
Protocol: The 25 events were also evaluated in first year field testing for efficacy located at the same testing site as the agronomy field trials. Efficacy field trials were initiated to evaluate the vegetative and reproductive tolerance of the events to sequential applications of glyphosate at various application timings and rates. The 16 R2 events from construct 1 were evaluated at 5 locations. The 3 R2 events from construct 2, the 3 R2 events from construct 4, and the 3 R2 events from construct 5 were evaluated at 4 locations. Each study contained the positive isoline of each event and two commercial varieties. A split plot design with 3 replications was used with herbicide treatments as whole plots and event entries as subplots. A non-sprayed treatment was included for comparison.
Events were evaluated for vegetative and reproductive tolerance to either a single application of 1.6 lb AE/A or two sequential applications of 0.8 lb AE/A when applied from crop emergence up to first flower. Roundup WeatherMAX® was applied at three different rates that were equivalent to 2×, 4×, and 8× of the single application rate (Table 2). The initial application was made at the four leaf stage followed by a second application at the prebolt stage. […]
as §3, with “application. Least-squares means were calculated for each combination of glyphosate level and event, and t-tests were used to determine the significance of the effects of glyphosate on event tolerance.” for “application.”

[5] = glyphosate 450 g ae/ha at 1st flower
[6] = glyphosate 450 g ae/ha at 4-6 leaf
[7] = glyphosate 900 g ae/ha at 1st flower
[8] = glyphosate 900 g ae/ha at 4-6 leaf
[9] = glyphosate 1800 g ae/ha at 1st flower
[10] = glyphosate 3600 g ae/ha at 1st flower
[11] = glyphosate 3600 g ae/ha at 4-6 leaf
[12] = glyphosate 11800 g ae/ha at 4-6 leaf
[13] = glyphosate 1800 g ae/ha at 4-6 leaf

O=C(O)CNCP(=O)(O)O [glyphosate, N-phosphonomethyl-glycine]
7-10 DAT % CHLR Avg [1, 5]: 0.0% | 14-21 DAT % GR Avg [1, 5]: 0.0% | 7-10 DAT % CHLR Avg [1, 6]: 0.0% | 14-21 DAT % GR Avg [1, 6]: 0.3% | 7-10 DAT % CHLR Avg [1, 7]: 0.3% | 14-21 DAT % GR Avg [1, 7]: 0.8% | 7-10 DAT % CHLR Avg [1, 8]: 0.7% | 14-21 DAT % GR Avg [1, 8]: 0.7% | 7-10 DAT % CHLR Avg [1, 9]: 0.9% | 14-21 DAT % GR Avg [1, 9]: 0.0% | 7-10 DAT % CHLR Avg [1, 10]: 4.7% | 14-21 DAT % GR Avg [1, 10]: 1.1% | 7-10 DAT % CHLR Avg [1, 11]: 1.7% | 14-21 DAT % GR Avg [1, 11]: 0.3% | 7-10 DAT % CHLR Avg [1, 12]: 1.7% | 14-21 DAT % GR Avg [1, 12]: no percent growth reduction | 14-21 DAT % GR Avg ([1]; glyphosate 11800 g ae/ha at 4-6 leaf, listed as Glyphosate): 0.0% | yield reduction ([1]; MON 88302 plants, 1800 g ae/ha and 2× at four to six leaf (FIG. 2)): No significant yield reductions | maturity ([1]; MON 88302 plants, 1800 g ae/ha at four to six leaf): significant shortening of maturity | maturity ([1]; MON 88302 plants, all rates except 1800 g ae/ha at four to six leaf): No delay in maturity | yield vs unsprayed ([1]; MON 88302 plants, any rate or timing): No significant differences in yield | yield reduction ([1]; MON 88302 plants, glyphosate rates at first flower (FIG. 3)): No significant yield reductions | yield reduction ([2]; 2× the proposed rate of 1800 g ae/ha at four to six leaf): 30% | yield vs unsprayed ([2]; 1800 and 3600 g ae/ha at both stages and 900 g/ha at first flower): significant yield reduction | yield reduction ([2]; 1800 g ae/ha at four to six leaf): 11.4% | maturity ([2]; 3600 g ae/ha at both four to six leaf and first flower): delayed significantly | yield reduction ([2]; all rates shown at first flower (FIG. 3)): significant yield reduction | 7-10 DAT % CHLR Avg [2, 5]: 0.6% | 14-21 DAT % GR Avg [2, 5]: 0.8% | 7-10 DAT % CHLR Avg [2, 6]: 0.3% | 14-21 DAT % GR Avg [2, 6]: 0.9% | 7-10 DAT % CHLR Avg [2, 7]: 1.8% | 14-21 DAT % GR Avg [2, 7]: 0.3% | 7-10 DAT % CHLR Avg [2, 8]: 2.2% | 14-21 DAT % GR Avg [2, 8]: 1.3% | 7-10 DAT % CHLR Avg [2, 9]: 6.7% | 14-21 DAT % GR Avg [2, 9]: 3.3% | 7-10 DAT % CHLR Avg [2, 13]: 4.7% | 14-21 DAT % GR Avg [2, 13]: 5.3% | 7-10 DAT % CHLR Avg [2, 10]: 10% | 14-21 DAT % GR Avg [2, 10]: 8.1% | 7-10 DAT % CHLR Avg ([2]; glyphosate 3600 g ae/ha at 1st flower, listed as Glyphosate): 10.0% | 7-10 DAT % CHLR Avg [2, 11]: 10% | 14-21 DAT % GR Avg [2, 11]: 20.8% | 7-10 DAT % CHLR Avg ([2]; glyphosate 3600 g ae/ha at 4-6 leaf, listed as Glyphosate): 10.0% | yield ([3]; all construct 2 events, regardless of application rate): significantly reduced the yield | injury ([3]; construct 2 events, all glyphosate rates tested): Unacceptable levels of injury | vegetative injury ([4]; 2× product concept rate): very minor | yield ([4]; regardless of rate, one event excepted at 6.4 lb AE/A followed by 6.4 lb AE/A): not negatively impacted | vegetative and reproductive tolerance to glyphosate ([4]; sequential applications at four leaf and prebolt, 2×, 4×, 8× rates): excellent vegetative and reproductive tolerance
